# Measured values: patent US5449592A, “Silver halide color photographic light sensitive material for color proof and method for preparing color proof using the same” (Konica Corporation, priority 1988, dated 1995)
# Columns and labels:
# [1] = pKa of couplers, neutralization-titration method; format: physicochemical; conditions: neutralization-titration method (asterisk)
# Excerpt: (§1) In this invention, a pKa value means a common logarithmic value of the reciprocal of a proton-dissociation equilibrium constant K at the active site of a coupler.
# As described in, for example, J.C.S., Perkin I, 809(1973) and 1768(1973), J. Phot. Sci., 22,49(1974), E. Pelizzrtti(3M, Italia), C. Saini(Toino Vniv.) and J. Phot. Sci., 13,248(1985) B. P. Brand (ICI), a pKa value can be measured in a spectrophotometric method or a neutralization-titration mehtod, using a suitable solvent such as a mixture of water and organic solvent. […]
# Certain of couplers have plural dissociable protons. […] Among those values, however, each pKa value of this invention means a value measured in relation to making anionic the nucleus of a coupler capable of forming a dye upon coupling reaction with the oxidized product of a color developing agent.
# Either of the above-described two measurement methods may be so selected out as to meet the characteristics of a coupler subjected to a measurement. […] Howerer, the difference in pKa value between a magenta coupler and yellow coupler used in the invention, i.e., a value of pKa 1-pKa 2, can be applied to the invention, provided that both of the pKa1 and pKa2 values are measured in one and the same method of the two.
# In Table 1, pKa values with asterisks are values measured by the neutralization-titration method. […]
# [2] = pKa of couplers, spectrophotometric method; format: physicochemical; conditions: spectrophotometric method (no asterisk); 2-butoxyethanol and water (30:70)
# Excerpt: as §1
# As described in, for example, J.C.S., Perkin I, 809(1973) and 1768(1973), J. Phot. Sci., 22,49(1974), E. Pelizzrtti(3M, Italia), C. Saini(Toino Vniv.) and J. Phot. Sci., 13,248(1985) B. P. Brand (ICI), a pKa value can be measured in a spectrophotometric method or a neutralization-titration mehtod, using a suitable solvent such as a mixture of water and organic solvent.
# In the spectrophotometric method, a pka value of coupler is regarded as a pH value obtained in correspondence with the inflection point of a rerational curve obtained between the pH and absorbance of a coupler solution, utilizing the fact that there is a difference in absorbance between the coupler itself and the anion thereof.
# To be more concrete, the above-mentioned coupler solution is prepared by the use of a mixture of 2-butoxyethanol and water (30:70) as a solvent. The concentration of the coupler solution is adjusted to the order of 1×10^-5 to 1×10^-2 M so that pKa values can readily be measured. The coupler solution is added with anhydrous potassium carbonate in an amount of 3 g per liter, and is further adjusted to be various pH values by adding hydrochloric acid and potassium hydroxide correspondingly. The spectral absorbance of each solution is then measured so as to obtain a relational curve made between the pH value and the spectral absorbance of each solution.
# Certain of couplers have plural dissociable protons. In those cases, plural pKa values may be obtained. Among those values, however, each pKa value of this invention means a value measured in relation to making anionic the nucleus of a coupler capable of forming a dye upon coupling reaction with the oxidized product of a color developing agent.
# Either of the above-described two measurement methods may be so selected out as to meet the characteristics of a coupler subjected to a measurement. When measuring one and the same coupler in the two methods, respectively, there are some differences between the resulted pKa values. Howerer, the difference in pKa value between a magenta coupler and yellow coupler used in the invention, i.e., a value of pKa 1-pKa 2, can be applied to the invention, provided that both of the pKa1 and pKa2 values are measured in one and the same method of the two.
# In Table 1, pKa values with asterisks are values measured by the neutralization-titration method. The other valves without asterisk are measured by the spectrophotometric method.
# Asterisks in Table 2 have the same mean as in Table 1.
pKa [1],Structure (SMILES),pKa [2]
10.07,CCCCCCCCCCCCCC(=O)Nc1ccc(Cl)c(NC2=NN(c3c(Cl)cc(Cl)cc3Cl)C(=O)C2)c1 [MC-1],–
–,CCCCCCCCC(CCCCCC)CS(=O)(=O)CCc1nn2c(C)n[nH]c2c1Cl (stereo not drawn) [M-9],9.18
–,CCCCCCCCC(CCCCCC)CS(=O)(=O)CCc1n[nH]c2c(Cl)c(C)nn12 (stereo not drawn) [M-4],9.11
–,CCC(C)(C)c1ccc(OCC(=O)Nc2ccc(S(=O)(=O)CC(C)(C)c3n[nH]c4c(Cl)c(C(C)(C)C)nn34)cc2)c(C(C)(C)CC)c1 [M-40],9.90
–,CCCCOc1ccc(C(C)(C)CC(C)(C)C)cc1Sc1c(SCC)nn2c(CCNC(=O)C(CCCC)Oc3ccc(C(C)(C)CC)cc3C(C)(C)CC)n[nH]c12 (stereo not drawn) [M-49],9.43
–,CCCCCCCCCCCCOc1ccc(S(=O)(=O)Nc2ccc(CCCc3n[nH]c4c(Cl)c(C)nn34)cc2)cc1 [M-1],10.24
–,CCCCOc1ccc(C(C)(C)CC(C)(C)C)cc1S(=O)(=O)CCCc1n[nH]c2c(Cl)c(C(C)C)nn12 [M-21],10.07
–,CCCCCCCCCCCCCCCCCCS(=O)(=O)CC(C)c1n[nH]c2c(Cl)c(C)nn12 (stereo not drawn) [M-3],8.99
–,CCC(C)(C)c1ccc(OCCCC(=O)Nc2ccc(Cl)c(NC(=O)C(Oc3ccc(S(=O)(=O)c4ccc(OCc5ccccc5)cc4)cc3)C(=O)C(C)(C)C)c2)c(C(C)(C)CC)c1 (stereo not drawn) [Y-8],8.60
–,CCCCC(Oc1ccc(C(C)(C)CC)cc1C(C)(C)CC)C(=O)Nc1ccc(CCc2n[nH]c3c(Cl)c(CC)nn23)cc1 (stereo not drawn) [M-16],10.30
–,CCCCOc1ccc(C(C)(C)CC(C)(C)C)cc1S(=O)(=O)CCCc1n[nH]c2c(Cl)c(C(C)(C)C)nn12 [M-33],10.39
–,CCCCCCCCCCC(Oc1ccc(C(C)(C)c2ccc(O)cc2)cc1)C(=O)Nc1ccc(S(=O)(=O)CCc2n[nH]c3c(Cl)c(C)nn23)cc1 (stereo not drawn) [M-12],9.71
–,CCCCOc1ccc(NS(=O)(=O)c2cc(C(C)(C)CC(C)(C)C)ccc2OCCCC)cc1S(=O)(=O)Nc1ccc(CCCc2n[nH]c3c(Cl)c(C(C)(C)C)nn23)cc1 [M-44],10.80
–,CCCCCCCCCCCCCCCCS(=O)(=O)CCC(C)c1n[nH]c2c(Cl)c(C(C)C)nn12 (stereo not drawn) [M-22],9.70
–,CCCCCCCCOc1ccc(C)cc1S(=O)(=O)CCS(=O)(=O)CCC(C)c1n[nH]c2c(Cl)c(C(C)C)nn12 (stereo not drawn) [M-26],9.68
